We go through one molecule from ChEMBL document CHEMBL3832029, “DailyMed|setid=517810a4-76bb-4739-893f-1f2ba94a5d0c | ZENATANE -isotretinoin capsule, gelatine coated”.

Several values for one entry are separate records, joined by “and”; a condition that tells them apart may be missing. Equal entries are not always repeated.

Assay type in all cases: ADME, organism-based
Data set [1] can be described thus: (§1) Mean pharmacokinetics parameters for Isotretinoin following single oral administration of Isotretinoin to healthy subjects. Set-up: dose 80 mg, route oral. Conditions: human, in vivo, dietary status Fed, dosed compound id 16, dosed compound name ISOTRETINOIN, regimen Single dose, tissue Plasma; for AUC: po, 80 mg.
Data set [2] relates to Homo sapiens. The data set is described as §1. To be noted: in vivo, po, dosed compound id 16, dosed compound name ISOTRETINOIN, regimen Single dose, tissue Plasma. The arrangement: dose 80 mg, route oral.
The nature of data set [3]: (§2) Steady-state pharmacokinetic parameters of Isotretinoin following multiple oral administration of Isotretinoin to 38 pediatric patients, […], after a non-standardised meal. Set-up: route oral. Conditions: human, in vivo, dietary status Fed, dosed compound id 16, dosed compound name ISOTRETINOIN, regimen Multiple dose, tissue Plasma.
Data set [4] relates to Homo sapiens. The data set is described as §2. Set-up: route oral. To be noted: in vivo, po, dietary status Fed, dosed compound id 16, dosed compound name ISOTRETINOIN, regimen Multiple dose, tissue Plasma.
The mark [5] stands for this setting: dietary status Fasting, dose 80 mg.

`CC1=C(/C=C/C(C)=C/C=C/C(C)=C\C(=O)O)C(C)(C)CCC1` [ISOTRETINOIN]: the area under the curve (AUC) (in general, the area under the concentration-time curve, a measure of exposure) in data set [1] (read-out: AUC(0-12)) was 3030 ng·h/mL; in data set [1] (read-out: AUC(0-24)), 6000 ng·h/mL; in data set [3] (po, read-out: AUC(0-12)), 5080 ng·h/mL. Besides, the time of peak concentration (Tmax) (usually the time from dosing to the highest level) in data set [1] (dose 80 mg, route oral) is 5.3 h; with Homo sapiens [2] (setting [5]), 3.2 h; with Homo sapiens [2] (dietary status Fed) it was 6 h; in data set [3] (route oral), 4 h. The half-life (as a rule, how long it takes for the measured level to halve) in data set [1] (dose 80 mg, route oral) was 21 h; in data set [3] (route oral), 15.7 h. The molecule also displayed a t1/2 in the data set with Homo sapiens [2] (setting [5]) of 21 h. Also, the AUC(0 to inf) came to 3700 ng·h/mL in the data set on Homo sapiens [2] (dietary status Fasting) and 10000 ng·h/mL in the data set with Homo sapiens [2] (dietary status Fed). In addition, the maximum concentration (Cmax) (as a rule, the highest concentration seen after dosing) is 301 ng/mL in the data set on Homo sapiens [2] (dietary status Fasting); 862 ng/mL and 573.25 ng/mL with Homo sapiens [2] (dietary status Fed); 732 ng/mL in data set [3] (po). Moreover, in data set [3] (route oral), the CL/F (as a rule, clearance divided by bioavailability, as obtained after extravascular dosing) is 299 mL/min. Further, the Css min in the data set with Homo sapiens [4] was 352.32 ng/mL.
